From US8088819B2, “Derivatives of substituted 3-phenyl-1-(phenylthienyl)propan-1-ones and of 3-phenyl-1-(phenylfuranyl) propan-1-ones, preparation and use” (priority 2006, dated 2012)

Experiments:
[1] = system: target genes of the PPARs; test: Expression of PPARδ target genes in skeletal muscle of the C57Bl6 mouse (compound 2), quantitative RT-PCR; type: in vivo; details: C57Bl6 mice; 50 mpk; 14 days
From the text: The PPARδ agonistic properties of the molecules according to the invention previously measured in vitro should be reflected at the level of the skeletal muscle in an overexpression of the target genes directly under the control of the PPARδ receptor: the genes that were investigated in this experiment are the genes coding for UCP2 (uncoupling protein 2, mitochondrial transporter involved in thermoregulation) and PDK4 (pyruvate dehydrogenase kinase isoform 4, enzyme of carbohydrate metabolism).
Female C57Bl6 mice were kept under a cycle of light and darkness of 12/12 hours at a constant temperature of 20±3° C. After acclimation for one week, the mice were weighed and put into groups of 6 animals selected so that the distribution of their body weight, of their plasma lipid levels and of total cholesterol determined for the first time before the experiment, is uniform. […]
1 μg of total RNA (quantified on the basis of the spectrophotometer reading) was then reverse-transcribed to complementary DNA by reaction for 1 hour at 37° C. in a total volume of 30 μl containing buffer 1× (Invitrogen), 1.5 mM of DTT, 0.18 mM of dNTPs (Promega), 200 ng of pdN6 (Amersham), 30 U of RNase inhibitor (Promega) and 1 μl of MMLV-RT (Invitrogen). […]
The amount of fluorescence emitted is directly proportional to the amount of complementary DNA present at the start of the reaction and amplified during PCR. […]

[2] = system: target genes of the PPARs; test: Expression of target genes of the PPARs in liver and skeletal muscle of the E2/E2 mouse, quantitative RT-PCR; type: in vivo; details: 50 mpk, 13 days
From the text: The PPARα agonistic properties of the molecules according to the invention previously measured in vitro must be reflected at the hepatic level in a modulation of the expression of the target genes directly under the control of the PPARα receptor. The genes that were investigated in this experiment are the genes coding for PDK4 (pyruvate dehydrogenase kinase isoform 4, enzyme of carbohydrate metabolism), for AcoX1 (the AcoX1 present in the mouse corresponds to the gene of ACO in humans (acyl co-enzyme A oxidase, a key enzyme in the mechanism of the β-oxidation of fatty acids)) and for Apo CIII (an apolipoprotein involved in lipid metabolism).
The PPARδ agonistic properties of the molecules according to the invention previously measured in vitro should also be reflected, at the level of the skeletal muscle, in overexpression of the target genes directly under the control of the PPARδ receptor. The genes that were investigated in this experiment are the genes coding for PDK4 (pyruvate dehydrogenase kinase isoform 4, enzyme of carbohydrate metabolism) and UCP2 (uncoupling protein 2, mitochondrial transporter involved in thermoregulation).
Apo E2/E2 transgenic mice were kept under a cycle of light and darkness of 12/12 hours at a constant temperature of 20±3° C. After acclimation for one week, the mice were weighed and put into groups of 6 animals selected so that the distribution of their body weights and of their plasma lipid levels determined for the first time before the experiment are uniform. The test compounds were suspended in carboxymethylcellulose (Sigma C4888) and administered by intragastric force feeding, at a rate of once per day for 13 days at the chosen dose. The animals had free access to water and to food (standard diet). At the end of the experiment, the animals were anesthetized after fasting for 4 hours, a blood sample was taken using anticoagulant (EDTA), then the mice were weighed and euthanased. The plasma was separated by centrifugation at 3000 rev/min for 20 minutes, and the samples were stored at +4° C.
Samples of liver and of skeletal muscle tissue were taken and frozen immediately in liquid nitrogen and then stored at −80° C. for later analyses.
The total RNA was extracted from fragments of liver using the NucleoSpin® 96 RNA kit (Macherey Nagel, Hoerdt, France) following the manufacturer's instructions. […]
1 μg of total RNA (quantified by spectrophotometry) was then reverse-transcribed to complementary DNA by reaction for 1 hour at 37° C. in a total volume of 30 μl containing buffer 1× (Invitrogen), 1.5 mM of DTT, 0.18 mM of dNTPs (Promega), 200 ng of pdN6 (Amersham), 30 U of RNase inhibitor (Promega) and 1 μl of MMLV-RT (Invitrogen).
The quantitative PCR experiments were carried out using the MyiQ Single-Color Real-Time PCR Detection System (Biorad, Marnes-la-Coquette, France) and were performed using the iQ SYBR Green Supermix kit following the supplier's recommendations, in 96-well plates, on 5 μl of diluted reverse transcription reaction mixture with a hybridization temperature of 60° C. […]
In both cases (hepatic tissue and skeletal muscle tissue), the amount of fluorescence emitted is directly proportional to the amount of complementary DNA present at the start of the reaction and amplified during PCR. […] The relative expression levels of each target are thus determined using the efficacy curves obtained with the points in the range. […]

CC(C)(Oc1ccc(CCC(=O)c2ccc(-c3ccc(C(F)(F)F)cc3)s2)c(Cl)c1Cl)C(=O)O [Compound 2, 2-(2,3-dichloro-4-(3-oxo-3-(5-(4-(trifluoromethyl)phenyl)thien-2-yl)propyl)phenoxy)-2-methylpropanoic acid]
expression of the gene coding for PDK4 in skeletal muscle [1]: significant increase
expression of the gene coding for UCP2 in skeletal muscle [1]: significant increase
hepatic expression of the gene coding for AcoX1 ([2]; liver): significant increase
hepatic expression of the gene coding for ApoCIII ([2]; liver): decrease
hepatic expression of the gene coding for PDK4 ([2]; liver): significant increase
expression of the gene coding for PDK4 in the skeletal muscle ([2]; skeletal muscle): significant increase
expression of the gene coding for UCP2 in the skeletal muscle ([2]; skeletal muscle): significant increase
